This note sets out measurements from US6696474B2, “Antidiabetic agents” (Warner Lambert Co. LLC., priority 2002, dated 2004).

A word on the EC50: it is the midpoint of the concentration-response curve. A higher EC50 goes with weaker potency.

Each structure is given as a SMILES string. Read-outs that look alike come from different tables or passages of the source.

One assay addresses T1, PPAR-γ (Mus musculus, UniProt P37238).
T1 construct: endogenous in cells; host or cells: 3T3-L1 preadipocytes, differentiated for about 3 days with methyl isobutylxanthine, dexamethasone and insulin
T1 sequence (P37238 1-505): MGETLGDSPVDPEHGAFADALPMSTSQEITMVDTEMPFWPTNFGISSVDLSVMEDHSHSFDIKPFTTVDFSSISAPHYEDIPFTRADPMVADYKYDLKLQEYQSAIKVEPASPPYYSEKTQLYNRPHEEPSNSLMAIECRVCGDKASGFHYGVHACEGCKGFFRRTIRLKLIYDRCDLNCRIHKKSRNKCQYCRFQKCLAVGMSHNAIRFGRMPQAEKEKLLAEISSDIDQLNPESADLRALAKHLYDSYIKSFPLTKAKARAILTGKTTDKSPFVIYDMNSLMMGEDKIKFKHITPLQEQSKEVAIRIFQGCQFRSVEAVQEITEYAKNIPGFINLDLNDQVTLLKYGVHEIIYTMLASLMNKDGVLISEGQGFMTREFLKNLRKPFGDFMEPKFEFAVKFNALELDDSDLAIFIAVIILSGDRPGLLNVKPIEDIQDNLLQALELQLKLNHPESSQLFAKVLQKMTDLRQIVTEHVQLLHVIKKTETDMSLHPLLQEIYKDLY
The assay is described as follows: 3T3-L1 transient reporter assay (AD3T3-L1 reporter). It counts as cell-based, murine. The settings on record: for EC50: 3T3-L1 cells, aP2 promoter luciferase reporter, 48 hours. How it is done:
This assay is used to determine the potential of putative PPAR-γ ligands to activate the promoter/enhancer of the murine aP2 gene. 3T3-L1 preadipocytes are cultured on collagen coated plates in DMEM containing 10% Calf serum for 48 hours post-confluence. The cells are then cultured for approximately 3 days in DMEM containing 10% Fetal Bovine Serum (FBS), 0.5-mM methyl isobutylxanthine, 0.25 μM dexamethasone, and 1 μg/ml of insulin. Cells are detached from the plates with Trypsin-EDTA and resuspended in Phosphate Buffered Saline (PBS).
The reporter construct used in this assay is comprised of the —5.4 Kb 5′ flanking region of the murine aP2 gene inserted into the cloning site of the TKpGL3 luciferase vector. Transfection efficiency is controlled by co-transfection of the reference plasmid CMV-β-galactosidase. The reporter construct and the reference plasmid are transiently co-transfected into the cells by electroporation. The transfected cells are plated into collagen coated 96-well plates and cultured overnight. Cells are then incubated for 48 hours with the test compounds and then harvested. The lysates are measured for luciferase and β-galactosidase activities using the Dual-Light® luciferase kit from Tropix on a EG&G Berthold MicroLumat LB96P luminometer.
(In general: Reporter assays use an easily measured gene product as a stand-in for the process of interest.)

Assay [1] relates to Ob/Ob diabetic mouse model. Briefly: Blood glucose measurement (Glucose Δ) in Ob/Ob diabetic mouse model. The format is in vivo. The protocol: Glucose is obtained 4 hours post dose via tail vein stick (5 μl whole blood) in awake, 4 hour fasted animals. Blood is drawn by capillary action into a glucose cuvette and read in a HemoCue Glucose Analyzer (Ryan Diagnostics). Blood is diluted 1:2 with saline if glucose levels are greater than 400 mg/dl (meter high range) and results multiplied by two.

Where [2] appears, read: 3T3-L1, maximal response relative to rosiglitazone, read-out: AD3T3-L1 Reporter Max. % Rosi (maximal response).

Regarding `Cc1oc(-c2ccccc2)nc1CCCC#CCC(C(=O)O)n1cccc1` (stereo not drawn) [Example 1-11], the Emax on PPAR-γ (3T3-L1, read-out: AD3T3-L1 Reporter Max. % Rosi (maximal response)) came out at 108%. For the same molecule, at PPAR-γ, it took 0.089 µM to reach a half-maximal effect (EC50).

Consider `Cc1oc(-c2ccccc2)nc1CCCC#CCC(C(=O)O)c1cccs1` (stereo not drawn) [Example 1-13, 8-(5-Methyl-2-phenyl-oxazol-4-yl)-2-thiophen-2-yl-oct-4-ynoic Acid], for which the Emax at PPAR-γ (setting [2]) is 97%. Moreover, a half-maximal response at PPAR-γ (EC50) required 0.303 µM.

Turning to `Cc1oc(-c2ccccc2)nc1CCCC#CCC(C(=O)O)n1nccn1` (stereo not drawn) [Example 1-15, 8-(5-Methyl-2-phenyl-oxazol-4-yl)-2-[1,2,3]triazol-2-yl-oct-4-ynoic Acid], on PPAR-γ (setting [2]), the Emax came out at 103%. The molecule also gave an EC50 on PPAR-γ of 0.015 µM. Further, the “In VIVO Δ Glucose @ 20 mg/kg” value in assay [1] (20 mg/kg, glucose 4 hours post dose) is -258 mg/dL. Also, the “In VIVO % Rosiglitazone” value in assay [1] (20 mg/kg, glucose change relative to rosiglitazone) is on record as 180%. Also, the “Blood glucose in Ob/Ob diabetic mouse model” value in assay [1] (Ob/Ob diabetic mouse, in 3 days at 20 mg/Kg) is “Normalized blood glucose”.
